Measured values from patent US20230167088A1, “1-PYRAZINYLPYRAZOLYL-3-OXYALKYL ACIDS AND THEIR DERIVATIVES, AND THEIR USE FOR CONTROL OF UNDESIRED PLANT GROWTH” (BAYER AKTIENGESELLSCHAFT, priority 2020, published 2023).

Columns and labels:
[1] = tested on: AVEFA; assay: Herbicidal post-emergence action 1a (greenhouse pots, visual rating); format: in vivo, Avena fatua; settings: rated visually about 3 weeks after treatment, 100% = plants have died, 0% = like control plants
Method in brief: (§1)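 Weeds and crops sown in sandy loam in greenhouse pots were sprayed post-emergence at the one-leaf stage (2–3 weeks after sowing) with WP or EC formulations plus 0.5% additive at 600 l/ha water, 320 and/or 80 g/ha. About 3 weeks later damage was rated visually against untreated controls (0% = no effect, 100% = dead).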

[2] = tested on: AMARE; assay: as above; format: in vivo, Amaranthus retroflexus; settings: visual rating about 3 weeks after treatment
Method in brief: as §1

[3] = tested on: STEME; assay: Herbicidal post-emergence action 1b (twin sowing, 1280 g/ha); format: in vivo, Stellaria media; settings: dosage 1280 g/ha, visual rating about 3 weeks after treatment
Method in brief: (§2)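 Sow paired weed species in sandy loam pots and grow in the greenhouse; at the one-leaf stage (2–3 weeks) spray green parts with compound suspension or emulsion containing 0.5% additive at 600 L water/ha; keep about 3 weeks, then score damage visually relative to untreated plants.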

[4] = tested on: POAAN; assay: as above; format: in vivo, Poa annua; settings: dosage 1280 g/ha, visual rating about 3 weeks after treatment
Method in brief: as §2

[5] = tested on: VERPE; assay: Herbicidal post-emergence action 1a (greenhouse pots, visual rating); format: in vivo, Veronica persica; settings: visual rating about 3 weeks after treatment
Method in brief: as §1

[6] = tested on: STEME; assay: Herbicidal pre-emergence action 2b (doubly sown, 1280 g/ha); format: in vivo, Stellaria media; settings: doubly sown pots, dosage 1280 g/ha, visual scoring after about 3 weeks
Method in brief: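 Read-out: visual percentage damage relative to untreated controls, scored after roughly 3 weeks in the greenhouse, where 100% means plants died and 0% equals control. Seeds were sown two species per pot in sandy loam and covered before the compounds, formulated as WP or EC with 0.5% additive, were sprayed onto the soil at 600 L/ha.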

[7] = tested on: AMARE; assay: Herbicidal pre-emergence action 2a (greenhouse pots, visual scoring); format: in vivo, Amaranthus retroflexus; settings: dosage 320 g/ha, visual scoring after about 3 weeks vs untreated controls
Method in brief: (§3)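 Pre-emergence greenhouse pot test: WP or EC formulations sprayed onto covering soil over sown seeds at 600 l/ha water with 0.5% additive, at rates corresponding to 320 g/ha and/or 80 g/ha. Visual % activity versus untreated controls after about 3 weeks (100% = plants dead).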

[8] = tested on: SETVI; assay: as above; format: in vivo, Setaria viridis; settings: dosage 320 g/ha, visual scoring after about 3 weeks vs untreated controls
Method in brief: as §3

[9] = tested on: ECHCG; assay: Herbicidal post-emergence action 1a (greenhouse pots, visual rating); format: in vivo, Echinochloa crus-galli; settings: rated visually about 3 weeks after treatment, 100% = plants have died, 0% = like control plants
Method in brief: as §1

[10] = tested on: harmful plants; assay: Herbicidal pre-emergence action 2a, summary across species; format: in vivo; settings: Tables B1 to B15 (320 g/ha and/or 80 g/ha)
Source text: a) Seeds of monocotyledonous and dicotyledonous weed plants and crop plants are placed in plastic or organic plant pots and covered with soil. The compounds of the invention, formulated in the form of wettable powders (WP) or as emulsion concentrates (EC), are then applied onto the surface of the covering soil as aqueous suspension or emulsion with addition of 0.5% additive at a water application rate of 600 1/ha (converted). After the treatment, the pots are placed in a greenhouse and kept under good growth conditions for the trial plants. After about 3 weeks, the effect of the preparations is scored visually in comparison with untreated controls as percentages. For example, 100% activity=the plants have died, 0% activity=like control plants.
Tables B1 to B15 below show the effects of selected compounds of the general formula (I) according to Tables 1 and 2 on various harmful plants and an application rate corresponding to 320 g/ha and/or 80 g/ha, which were obtained by the experimental procedure mentioned above.
For example, compound nos. I-07, I-08, I-11, I-12, I-13, I-16, I-17, I-20, I-36, I-37, I-39, I-45, I-46, I-48, I-52 and I-53 in the pre-emergence method have very good action (80% to 100% herbicidal activity) against harmful plants such as Alopecurus myosuroides, Amaranthus retroflexus, Digitaria sanguinalis, Lolium rigidum, Polygonum convolvulus, Setaria viridis, Veronica persica and Viola tricolor at an application rate of 0.32 kg of active substance per hectare.

With COC(=O)[C@@H](C)Oc1nn(-c2cnccn2)c(-c2cncc(F)c2)c1C#N [Example I-40] the “Post-emergence action against AVEFA in %” value ([1]; Dosage 320 g/ha) was 80%, the “Post-emergence action against AMARE in %” value ([2]; dosage 80 g/ha) was 80% and the “Post-emergence action against AMARE in %” value ([2]; dosage 320 g/ha) was 90%. The “Post-emergence action at 1280 g/ha against STEME in %” value [3] was 100%, the “Post-emergence action at 1280 g/ha against POAAN in %” value [4] was 100% and the “Post-emergence action against VERPE in %” value ([5]; dosage 320 g/ha) was 80%. For the same compound, the “Pre-emergence action at 1280 g/ha against STEME in %” value [6] was 100%, the “Pre-emergence action against AMARE in %” value [7] was 90% and the “Pre-emergence action against SETVI in %” value [8] was 100%.
COC(=O)C(C)Oc1nn(-c2cnccn2)c(-c2cncc(F)c2)c1Br (racemic) [Example I-08] was tested, and the “Post-emergence action against AVEFA in %” value ([1]; Dosage 80 g/ha) was 100%, the “Post-emergence action against AVEFA in %” value ([1]; Dosage 320 g/ha) was 100% and the “Post-emergence action against AMARE in %” value ([2]; dosage 320 g/ha) was 80%. For the same compound, the “Post-emergence action against ECHCG in %” value ([9]; Dosage 80 g/ha) was 80%, the “Post-emergence action against ECHCG in %” value ([9]; Dosage 320 g/ha) was 90% and the “Post-emergence action against VERPE in %” value ([5]; dosage 80 g/ha) was 90%. For the same compound, the “Post-emergence action against VERPE in %” value ([5]; dosage 320 g/ha) was 90%, the “Pre-emergence action against AMARE in %” value [7] was 100% and the “Pre-emergence action against SETVI in %” value [8] was 100%. For the same compound, the “herbicidal efficacy against harmful plants in the case of pre-emergence treatment (in words)” value (“herbicidal efficacy” below) [10] was “good herbicidal efficacy”.
With CCOC(=O)COc1nn(-c2cnccn2)c(-c2ccccc2)c1Br [Example I-01] the “Post-emergence action against AMARE in %” value ([2]; dosage 80 g/ha) was 80%, the “Post-emergence action against AMARE in %” value ([2]; dosage 320 g/ha) was 90% and the “Post-emergence action against ECHCG in %” value ([9]; Dosage 320 g/ha) was 90%. For the same compound, the “Post-emergence action at 1280 g/ha against STEME in %” value [3] was 100%, the “Post-emergence action against VERPE in %” value ([5]; dosage 80 g/ha) was 80% and the “Post-emergence action against VERPE in %” value ([5]; dosage 320 g/ha) was 90%. For the same compound, the “Pre-emergence action at 1280 g/ha against STEME in %” value [6] was 100%, the “Pre-emergence action against AMARE in %” value [7] was 100% and the “herbicidal efficacy” value [10] was “good herbicidal efficacy”.
With COC(=O)COc1nn(-c2cnccn2)c(-c2cncc(F)c2)c1Br [Example I-07] the “Post-emergence action against AVEFA in %” value ([1]; Dosage 80 g/ha) was 100%, the “Post-emergence action against AVEFA in %” value ([1]; Dosage 320 g/ha) was 100% and the “Post-emergence action against AMARE in %” value ([2]; dosage 320 g/ha) was 80%. For the same compound, the “Post-emergence action against ECHCG in %” value ([9]; Dosage 80 g/ha) was 80%, the “Post-emergence action against ECHCG in %” value ([9]; Dosage 320 g/ha) was 90% and the “Post-emergence action against VERPE in %” value ([5]; dosage 80 g/ha) was 90%. The “Post-emergence action against VERPE in %” value ([5]; dosage 320 g/ha) was 90%, the “Pre-emergence action against AMARE in %” value [7] was 100% and the “Pre-emergence action against SETVI in %” value [8] was 100%. For the same compound, the “herbicidal efficacy” value [10] was “good herbicidal efficacy”.
In the case of COC(=O)COc1nn(-c2cnccn2)c(-c2ccc(F)c(F)c2)c1Br [Example I-15], the “Post-emergence action against AVEFA in %” value ([1]; Dosage 80 g/ha) is reported as 90%, the “Post-emergence action against AVEFA in %” value ([1]; Dosage 320 g/ha) is reported as 90% and the “Post-emergence action against AMARE in %” value ([2]; dosage 80 g/ha) is reported as 80%. For the same compound, the “Post-emergence action against AMARE in %” value ([2]; dosage 320 g/ha) was 80%, the “Post-emergence action against ECHCG in %” value ([9]; Dosage 320 g/ha) was 90% and the “Post-emergence action against VERPE in %” value ([5]; dosage 80 g/ha) was 90%. The “Post-emergence action against VERPE in %” value ([5]; dosage 320 g/ha) was 90%, the “Pre-emergence action against AMARE in %” value [7] was 100% and the “Pre-emergence action against SETVI in %” value [8] was 100%. The “herbicidal efficacy” value [10] was “good herbicidal efficacy”.
With CCOC(=O)COc1nn(-c2cnccn2)c(-c2ccc(F)nc2)c1Br [Example I-52, ethyl {[4-bromo-5-(6-fluoropyridin-3-yl)-1-(pyrazin-2-yl)-1H-pyrazol-3-yl]oxy}acetate] the “Post-emergence action against AMARE in %” value ([2]; dosage 80 g/ha) was 90%, the “Post-emergence action against AMARE in %” value ([2]; dosage 320 g/ha) was 80% and the “Post-emergence action against ECHCG in %” value ([9]; Dosage 320 g/ha) was 80%. For the same compound, the “Post-emergence action against VERPE in %” value ([5]; dosage 320 g/ha) was 90%, the “Pre-emergence action at 1280 g/ha against STEME in %” value [6] was 100% and the “Pre-emergence action against AMARE in %” value [7] was 100%. The “Pre-emergence action against SETVI in %” value [8] was 90% and the “herbicidal efficacy” value [10] was “good herbicidal efficacy”.
For COC(=O)C(C)Oc1nn(-c2cnccn2)c(-c2ccnc(F)c2)c1Br (racemic) [Example I-10], the “Post-emergence action against AVEFA in %” value ([1]; Dosage 80 g/ha) was 80%, the “Post-emergence action against AVEFA in %” value ([1]; Dosage 320 g/ha) was 90% and the “Post-emergence action against AMARE in %” value ([2]; dosage 320 g/ha) was 80%. For the same compound, the “Post-emergence action at 1280 g/ha against STEME in %” value [3] was 90%, the “Post-emergence action at 1280 g/ha against POAAN in %” value [4] was 100% and the “Post-emergence action against VERPE in %” value ([5]; dosage 80 g/ha) was 80%. For the same compound, the “Post-emergence action against VERPE in %” value ([5]; dosage 320 g/ha) was 90%, the “Pre-emergence action at 1280 g/ha against STEME in %” value [6] was 100% and the “Pre-emergence action against AMARE in %” value [7] was 90%. The “Pre-emergence action against SETVI in %” value [8] was 100%.
